In ChEMBL document CHEMBL5537157, “Selective Antitumor Effect and Lower Toxicity of Mitochondrion-Targeting Derivatization of Triptolide” (J Med Chem, 2024):
Calls of active or inactive are those of the source. The rule behind the calls is not given here.

Experiments:
[1] = Cytotoxicity against human BEAS-2B cells assessed as inhibition of cell viability incubated for 48 hrs by MTT assay; type: toxicity, cell-based
[2] = system: A549; assay: Cytotoxicity against human A549 cells assessed as inhibition of cell viability incubated for 48 hrs by MTT assay; type: functional, cell-based; conditions: A549, 48 h
[3] = system: MCF7; assay: Cytotoxicity against human MCF7 cells assessed as inhibition of cell viability incubated for 48 hrs by MTT assay; type: functional, cell-based; conditions: MCF7, 48 h
[4] = system: NCI-H460; assay: Cytotoxicity against human NCI-H460 cells assessed as inhibition of cell viability incubated for 48 hrs by MTT assay; type: functional, cell-based; conditions: NCI-H460, 48 h
[5] = system: NCI-H1975; assay: Cytotoxicity against human NCI-H1975 cells assessed as inhibition of cell viability incubated for 48 hrs by MTT assay; type: functional, cell-based; conditions: NCI-H1975, 48 h
[6] = system: NCI-H1975; assay: Inhibition of cell viability in human NCI-H1975 cells assessed as effect on cell index at 80 nM by real-time cell analysis; type: functional, cell-based
[7] = Drug accumulation in mitochondria of human NCI-H1975 cells at 120 nM incubated for 5 hrs by Red CMXRos probe based analysis; type: ADME; conditions: nci-h1975, 5 h, 0.12 µM
[8] = system: NCI-H1975; assay: Cytotoxicity against human NCI-H1975 cells assessed as cell growth inhibition incubated for 48 hrs by MTT assay; type: functional, cell-based
[9] = system: MCF7; assay: Cytotoxicity against human MCF7 cells assessed as cell growth inhibition incubated for 48 hrs by MTT assay; type: functional, cell-based
[10] = system: BEAS-2B; assay: Cytotoxicity against human BEAS-2B cells assessed as cell growth inhibition incubated for 48 hrs by MTT assay; type: toxicity, cell-based
[11] = system: NCI-H1975; assay: Cytotoxicity against human NCI-H1975 cells assessed as cell growth inhibition incubated for 48 hrs by MTT assay relative to control; type: functional
[12] = system: NCI-H460; assay: Cytotoxicity against human NCI-H460 cells assessed as cell growth inhibition incubated for 48 hrs by MTT assay; type: functional, cell-based
[13] = system: A549; assay: Cytotoxicity against human A549 cells assessed as cell growth inhibition incubated for 48 hrs by MTT assay; type: functional, cell-based

Compound CC(C)[C@]12O[C@H]1[C@@H]1O[C@]13[C@]1(O[C@H]1C[C@H]1C4=C(CC[C@@]13C)C(=O)OC4)[C@]2(O)CO has an IC50 at 48 h [1] greater than 100 µM, an IC50 [2] greater than 100 µM and an IC50 [3] greater than 100 µM. For the same compound, the IC50 [4] was greater than 50 µM and the IC50 [5] was greater than 100 µM.

Compound CC(C)[C@]12O[C@H]1[C@@H]1O[C@]13[C@]1(O[C@H]1C[C@H]1C4=C(CC[C@@]13C)C(=O)OC4)[C@]2(O)COC(=O)CCCC[P+](c1ccccc1)(c1ccccc1)c1ccccc1 has an IC50 at 48 h [1] greater than 100 µM, an IC50 [2] greater than 100 µM and an IC50 [3] greater than 100 µM. The IC50 [4] was greater than 100 µM and the IC50 [5] was greater than 100 µM.

With C1=CCC(P(c2ccccc2)c2ccccc2)C=C1 (stereo not given) the IC50 at 48 h [1] was greater than 100 µM, the IC50 [2] was greater than 100 µM and the IC50 [3] was greater than 100 µM. For the same compound, the IC50 [4] was greater than 100 µM and the IC50 [5] was greater than 100 µM.

Work on CC(C)[C@]12O[C@H]1[C@@H]1O[C@]13[C@]1(O[C@H]1C[C@H]1C4=C(CC[C@@]13C)C(=O)OC4)[C@@H]2OC(=O)CCCCC[n+]1ccc(/C=C/c2c[nH]c3ccccc23)cc1 yielded an IC50 at 48 h [1] of 94.3 µM, an IC50 [2] greater than 50 µM and an IC50 [3] of 16.7 µM. For the same compound, the IC50 [4] was 3.12 µM and the IC50 [5] was 2.86 µM.

Compound CC(C)[C@]12O[C@H]1[C@@H]1O[C@]13[C@]1(O[C@H]1C[C@H]1C4=C(CC[C@@]13C)C(=O)OC4)[C@]2(O)COC(=O)CCCCC[P+](c1ccccc1)(c1ccccc1)c1ccccc1 has an IC50 at 48 h [1] greater than 50 µM, an IC50 [2] greater than 100 µM and an IC50 [3] greater than 50 µM. The IC50 [4] was greater than 50 µM and the IC50 [5] was greater than 100 µM.

Work on CC(C)[C@]12O[C@H]1[C@@H]1O[C@]13[C@]1(O[C@H]1C[C@H]1C4=C(CC[C@@]13C)C(=O)OC4)[C@]2(O)COC(=O)CCCCCCC[P+](c1ccccc1)(c1ccccc1)c1ccccc1 yielded an IC50 at 48 h [1] of 21.7 µM, an IC50 [2] of 27.3 µM and an IC50 [3] greater than 100 µM. The IC50 [4] was 29.9 µM and the IC50 [5] was 24.9 µM.

In the case of CC(C)[C@]12O[C@H]1[C@@H]1O[C@]13[C@]1(O[C@H]1C[C@H]1C4=C(CC[C@@]13C)C(=O)OC4)[C@@H]2OC(=O)CCCCCCCCCC[n+]1ccc(/C=C/c2c[nH]c3ccccc23)cc1, the IC50 at 48 h [1] is reported as 12.7 µM, the IC50 [2] is reported as greater than 50 µM and the IC50 [3] is reported as 5.26 µM. For the same compound, the IC50 [5] was 0.34 µM.

Compound C[n+]1ccc(/C=C/c2c[nH]c3ccccc23)cc1 has an IC50 at 48 h [1] greater than 100 µM, an IC50 [2] greater than 100 µM and an IC50 [3] greater than 100 µM. For the same compound, the IC50 [4] was greater than 50 µM and the IC50 [5] was greater than 50 µM.

Compound COc1cccc2c1C(=O)c1c(O)c3c(c(O)c1C2=O)C[C@@](O)(C(=O)CO)C[C@@H]3O[C@H]1C[C@H](N)[C@H](O)[C@H](C)O1 [DOXORUBICIN] has an IC50 at 48 h [1] of 42 µM, an IC50 [2] of 2.54 µM and an IC50 [4] of 0.581 µM. It also gave an IC50 [5] of 2.64 µM.

CC(C)[C@]12O[C@H]1[C@@H]1O[C@]13[C@]1(O[C@H]1C[C@H]1C4=C(CC[C@@]13C)C(=O)OC4)[C@@H]2OC(=O)CCCC[n+]1ccc(/C=C/c2c[nH]c3ccccc23)cc1 showed an IC50 at 48 h [1] of 35.7 µM, an IC50 [2] greater than 50 µM and an IC50 [3] of 47.2 µM. For the same compound, the IC50 [4] was greater than 50 µM and the IC50 [5] was 5.74 µM.

In the case of CC(C)[C@]12O[C@H]1[C@@H]1O[C@]13[C@]1(O[C@H]1C[C@H]1C4=C(CC[C@@]13C)C(=O)OC4)[C@]2(O)C=O, the IC50 at 48 h [1] is reported as greater than 100 µM, the IC50 [2] is reported as greater than 100 µM and the IC50 [3] is reported as greater than 100 µM. The IC50 [4] was greater than 50 µM and the IC50 [5] was greater than 50 µM.

With CC(C)[C@]12O[C@H]1[C@@H]1O[C@]13[C@]1(O[C@H]1C[C@H]1C4=C(CC[C@@]13C)C(=O)OC4)[C@]2(O)COC(=O)CCCCCCCC[P+](c1ccccc1)(c1ccccc1)c1ccccc1 the IC50 at 48 h [1] was 23.4 µM, the IC50 [2] was 21.7 µM and the IC50 [3] was 20.9 µM. It also gave an IC50 [4] of 27.7 µM and an IC50 [5] of 24.7 µM.

CC(C)[C@]12O[C@H]1[C@@H]1O[C@]13[C@]1(O[C@H]1C[C@H]1C4=C(CC[C@@]13C)C(=O)OC4)[C@]2(O)COC(=O)CCCCCC[P+](c1ccccc1)(c1ccccc1)c1ccccc1 showed an IC50 at 48 h [1] greater than 30 µM, an IC50 [2] of 38.4 µM and an IC50 [3] greater than 50 µM. It also gave an IC50 [4] greater than 50 µM and an IC50 [5] greater than 30 µM.

With CC(C)[C@]12O[C@H]1[C@@H]1O[C@]13[C@]1(O[C@H]1C[C@H]1C4=C(CC[C@@]13C)C(=O)OC4)[C@@H]2OC(=O)CCCCCCC[n+]1ccc(/C=C/c2c[nH]c3ccccc23)cc1.[Br-] the IC50 at 48 h [1] was 48.8 µM, the inhibition [6] was “Active” and the IC50 [2] was greater than 50 µM. For the same compound, the IC50 [3] was 7.09 µM, the IC50 [4] was 17.5 µM and the IC50 [5] was 0.4 µM. The Drug uptake [7] was “Active”.

Work on CC(C)[C@]12O[C@H]1[C@@H]1O[C@]13[C@]1(O[C@H]1C[C@H]1C4=C(CC[C@@]13C)C(=O)OC4)[C@@H]2OC(=O)CCCCCCCCC[n+]1ccc(/C=C/c2c[nH]c3ccccc23)cc1 yielded an IC50 at 48 h [1] of 11.9 µM, an IC50 [2] of 24.9 µM and an IC50 [3] of 6.24 µM. It also gave an IC50 [4] of 5.09 µM and an IC50 [5] of 0.44 µM.

CC(C)[C@]12O[C@H]1[C@@H]1O[C@]13[C@]1(O[C@H]1C[C@H]1C4=C(CC[C@@]13C)C(=O)OC4)[C@@H]2OC(=O)CCCCCC[n+]1ccc(/C=C/c2c[nH]c3ccccc23)cc1 gave an IC50 at 48 h [1] of 27.9 µM, an IC50 [2] of 47.8 µM and an IC50 [4] of 11.9 µM. For the same compound, the IC50 [5] was 0.27 µM.

CC(C)[C@]12O[C@H]1[C@@H]1O[C@]13[C@]1(O[C@H]1C[C@H]1C4=C(CC[C@@]13C)C(=O)OC4)[C@]2(O)COC(=O)CCCCCCCCC[P+](c1ccccc1)(c1ccccc1)c1ccccc1 showed an IC50 at 48 h [1] of 23.6 µM, an IC50 [2] of 23 µM and an IC50 [3] of 30.2 µM. The IC50 [4] was 26.7 µM and the IC50 [5] was 18.6 µM.

In the case of CC(C)[C@]12O[C@H]1[C@@H]1O[C@]13[C@]1(O[C@H]1C[C@H]1C4=C(CC[C@@]13C)C(=O)OC4)[C@@H]2OC(=O)CCCCC[P+](c1ccccc1)(c1ccccc1)c1ccccc1.[Br-], the IC50 at 48 h [1] is reported as greater than 10 µM, the IC50 [2] is reported as greater than 10 µM and the inhibition [8] is reported as “Dose-Dependent Effect”. For the same compound, the inhibition [9] was “Dose-Dependent Effect”, the IC50 [3] was greater than 10 µM and the IC50 [4] was greater than 10 µM. For the same compound, the “inhibition (INH)” value [10] was “Dose-Dependent Effect”, the Imax [11] was roughly 65% and the IC50 [5] was 0.14 µM. For the same compound, the inhibition [12] was “Dose-Dependent Effect” and the inhibition [13] was “Dose-Dependent Effect”.
